Where “and” joins values, the source holds several entries; their conditions need not be identical. Equal entries are not always repeated.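 How tested: cells in 96-well plates exposed to compound for 48 hours at five concentrations. GI50 is the concentration that inhibits growth by half. At the TGI there is no net growth.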
How the values were obtained:
Experiment in all cases: NCI anticancer screen, dose series, 48 h
SK-MEL-2 melanoma = tested on: SK-MEL-2 melanoma
PC-3 prostate = tested on: PC-3 prostate
SK-MEL-5 melanoma = tested on: SK-MEL-5 melanoma
MCF7 breast = tested on: MCF7 breast
UACC-257 melanoma = tested on: UACC-257 melanoma
NCI-H23 lung = tested on: NCI-H23 lung
COLO 205 colon = tested on: COLO 205 colon
SK-OV-3 ovarian = tested on: SK-OV-3 ovarian
KM12 colon = tested on: KM12 colon
OVCAR-3 ovarian = tested on: OVCAR-3 ovarian
HL-60(TB) leukemia = tested on: HL-60(TB) leukemia
UO-31 renal = tested on: UO-31 renal
MDA-MB-231 breast = tested on: MDA-MB-231 breast
OVCAR-4 ovarian = tested on: OVCAR-4 ovarian
MDA-MB-435 = tested on: MDA-MB-435
K-562 leukemia = tested on: K-562 leukemia
RXF 393 renal = tested on: RXF 393 renal
SNB-75 CNS = tested on: SNB-75 CNS
TK-10 renal = tested on: TK-10 renal
MOLT-4 leukemia = tested on: MOLT-4 leukemia
RPMI-8226 leukemia = tested on: RPMI-8226 leukemia
HT29 colon = tested on: HT29 colon
CCRF-CEM leukemia = tested on: CCRF-CEM leukemia
A498 renal = tested on: A498 renal
MALME-3M melanoma = tested on: MALME-3M melanoma
UACC-62 melanoma = tested on: UACC-62 melanoma
BT-549 breast = tested on: BT-549 breast
OVCAR-8 ovarian = tested on: OVCAR-8 ovarian
SK-MEL-28 melanoma = tested on: SK-MEL-28 melanoma
LOX IMVI melanoma = tested on: LOX IMVI melanoma
T-47D breast = tested on: T-47D breast
U251 CNS = tested on: U251 CNS
HS 578T breast = tested on: HS 578T breast
NCI-H460 lung = tested on: NCI-H460 lung
SF-539 CNS = tested on: SF-539 CNS
HOP-62 NSCLC = tested on: HOP-62 NSCLC
IGROV1 ovarian = tested on: IGROV1 ovarian
SN12C renal = tested on: SN12C renal
NCI-H522 lung = tested on: NCI-H522 lung
NCI-H226 lung = tested on: NCI-H226 lung
OVCAR-5 ovarian = tested on: OVCAR-5 ovarian
HCT-15 colon = tested on: HCT-15 colon
NCI/ADR-RES ovarian = tested on: NCI/ADR-RES ovarian
ACHN renal = tested on: ACHN renal
HOP-92 NSCLC = tested on: HOP-92 NSCLC
SNB-19 CNS = tested on: SNB-19 CNS
HCC-2998 colon = tested on: HCC-2998 colon
A549 NSCLC = tested on: A549 NSCLC
EKVX NSCLC = tested on: EKVX NSCLC
M14 melanoma = tested on: M14 melanoma
DU-145 prostate = tested on: DU-145 prostate
SF-295 CNS = tested on: SF-295 CNS
HCT-116 colon = tested on: HCT-116 colon
SF-268 CNS = tested on: SF-268 CNS
SW-620 colon = tested on: SW-620 colon
SR leukemia = tested on: SR leukemia
786-0 renal = tested on: 786-0 renal
CAKI-1 renal = tested on: CAKI-1 renal

**Q.** Which results are given for `NC1(c2ccc(-c3nc4ccn5c(=O)[nH]nc5c4cc3-c3ccccc3)cc2)CCC1`?
**A.** GI50 (SK-MEL-2 melanoma): 14.9 µM and > 10 µM and 15.7 µM; TGI (SK-MEL-2 melanoma): 30.2 µM and > 10 µM and 31.4 µM; GI50 (PC-3 prostate): 52.3 nM and 135 nM and 141 nM; TGI (PC-3 prostate): 17 µM and > 10 µM and 17.3 µM; GI50 (SK-MEL-5 melanoma): 2.09 µM and > 10 µM and 11.1 µM; TGI (SK-MEL-5 melanoma): 5.79 µM and > 10 µM and 23.2 µM; TGI (MCF7 breast): 6.37 µM and > 10 µM and 17.5 µM; GI50 (UACC-257 melanoma): 1.54 µM and > 10 µM and 12.7 µM; TGI (UACC-257 melanoma): 5.42 µM and > 10 µM and 26.8 µM; GI50 (NCI-H23 lung): 13.1 µM and > 10 µM and 13.2 µM; TGI (NCI-H23 lung): 28.3 µM and > 10 µM and 27.2 µM; GI50 (COLO 205 colon): 461 nM and 651 nM and 1810 nM; TGI (COLO 205 colon): 12.4 µM and > 10 µM and 18.4 µM; GI50 (SK-OV-3 ovarian): 212 nM and 191 nM and 449 nM; TGI (SK-OV-3 ovarian): 15.1 µM and > 5.49 µM and 14.9 µM; GI50 (KM12 colon): 6.86 µM and > 8.08 µM and 12.2 µM; TGI (KM12 colon): 20.8 µM and > 10 µM and 25.8 µM; GI50 (OVCAR-3 ovarian): 607 nM and 841 nM and 814 nM; TGI (OVCAR-3 ovarian): 18.9 µM and > 10 µM and 18.5 µM; GI50 (HL-60(TB) leukemia): 9.79 µM and > 7.36 µM and 12.3 µM; TGI (HL-60(TB) leukemia): 27.2 µM and > 10 µM and 28.8 µM; GI50 (UO-31 renal): 765 nM and 344 nM and 1080 nM; TGI (UO-31 renal): 18.3 µM and > 10 µM and 3.06 µM; GI50 (MDA-MB-231 breast): 10.7 µM and > 10 µM and 13.5 µM; TGI (MDA-MB-231 breast): 23.8 µM and > 10 µM and 26.7 µM; GI50 (OVCAR-4 ovarian): 5.57 µM and > 10 µM and 14.7 µM; TGI (OVCAR-4 ovarian): 14 µM and > 10 µM and 30.5 µM; GI50 (MDA-MB-435): 5.47 µM and > 10 µM and 10.8 µM; TGI (MDA-MB-435): 21.8 µM and > 10 µM and 23 µM; GI50 (K-562 leukemia): 5.43 µM and > 5.59 µM and 9.99 µM; TGI (K-562 leukemia): 18.2 µM and > 10 µM and 29.1 µM; GI50 (RXF 393 renal): 97.1 nM and 417 nM and 129 nM; TGI (RXF 393 renal): 1370 nM and 5660 nM and 1110 nM; GI50 (SNB-75 CNS): 51 nM and 105 nM and 120 nM; TGI (SNB-75 CNS): 3.35 µM and 2.62 µM and 4.53 µM; GI50 (TK-10 renal): 506 nM and 477 nM and 908 nM; TGI (TK-10 renal): 21.2 µM and > 10 µM and 18.4 µM; GI50 (MOLT-4 leukemia): 353 nM and 531 nM and 313 nM; TGI (MOLT-4 leukemia): 14.1 µM and > 10 µM and 10.9 µM; GI50 (RPMI-8226 leukemia): 7 µM and > 8.21 µM and 6.27 µM; TGI (RPMI-8226 leukemia): 23.2 µM and > 10 µM and 28.4 µM; GI50 (HT29 colon): 1500 nM and 2340 nM and 3020 nM; TGI (HT29 colon): 9.7 µM and > 10 µM and 24.6 µM; GI50 (CCRF-CEM leukemia): 362 nM and 488 nM and 402 nM; TGI (CCRF-CEM leukemia): 15.6 µM and > 10 µM and 13.7 µM; GI50 (A498 renal): 41.1 nM and 42.6 nM and 112 nM; TGI (A498 renal): 432 nM and 319 nM and 865 nM; TGI (MALME-3M melanoma): 3 µM and > 10 µM and 24.3 µM; GI50 (UACC-62 melanoma): 255 nM and 804 nM and 811 nM; TGI (UACC-62 melanoma): 15.3 µM and > 10 µM and 18 µM; GI50 (BT-549 breast): 462 nM and 621 nM and 1570 nM; TGI (BT-549 breast): 13.6 µM and > 10 µM and 16 µM; GI50 (OVCAR-8 ovarian): 12.6 µM and > 10 µM and 14.9 µM; TGI (OVCAR-8 ovarian): 28.2 µM and > 10 µM and 30.8 µM; GI50 (SK-MEL-28 melanoma): 1.27 µM and > 10 µM and 7.49 µM; TGI (SK-MEL-28 melanoma): 5.37 µM and > 10 µM and 21.6 µM; GI50 (LOX IMVI melanoma): 4.94 µM and > 6.27 µM and 11.8 µM; TGI (LOX IMVI melanoma): 16.5 µM and > 10 µM and 24.6 µM; GI50 (T-47D breast): 19.8 nM and 23.4 nM and 63.9 nM; GI50 (U251 CNS): 2340 nM and 2680 nM and 3650 nM; TGI (U251 CNS): 14.7 µM and > 10 µM and 20 µM; GI50 (HS 578T breast): 171 nM and 184 nM and 280 nM; TGI (HS 578T breast): 7.4 µM and > 2.73 µM and 4.3 µM; GI50 (NCI-H460 lung): 231 nM and 679 nM and 1190 nM; TGI (NCI-H460 lung): 17.7 µM and > 10 µM and 18.5 µM; GI50 (SF-539 CNS): 197 nM and 1710 nM and 1630 nM; TGI (SF-539 CNS): 5.77 µM and > 10 µM and 14 µM; GI50 (HOP-62 NSCLC): 3.84 µM and > 10 µM and 10.7 µM; TGI (HOP-62 NSCLC): 15.9 µM and > 10 µM and 26.2 µM; GI50 (IGROV1 ovarian): 87.8 nM and 198 nM and 407 nM; TGI (IGROV1 ovarian): 13.6 µM and > 10 µM and 9.33 µM; GI50 (SN12C renal): 6.95 µM and > 10 µM and 10.6 µM; TGI (SN12C renal): 21.7 µM and > 10 µM and 22.7 µM; GI50 (NCI-H522 lung): 7.95 µM and > 10 µM and 11.6 µM; TGI (NCI-H522 lung): 23.2 µM and > 10 µM and 26 µM; GI50 (NCI-H226 lung): 12.2 µM and > 10 µM and 11.6 µM; TGI (NCI-H226 lung): 25.9 µM and > 10 µM and 26.4 µM; GI50 (OVCAR-5 ovarian): 11.6 µM and > 10 µM and 12.6 µM; TGI (OVCAR-5 ovarian): 24.7 µM and > 10 µM and 25.7 µM; GI50 (HCT-15 colon): 2.92 µM and > 6.16 µM and 10.4 µM; TGI (HCT-15 colon): 17.5 µM and > 10 µM and 23.9 µM; GI50 (NCI/ADR-RES ovarian): 11.9 µM and > 10 µM and 12.8 µM; TGI (NCI/ADR-RES ovarian): 26.2 µM and > 10 µM and 26.9 µM; GI50 (ACHN renal): 3.05 µM and > 10 µM and 10.5 µM; TGI (ACHN renal): 14.9 µM and > 10 µM and 22.4 µM; GI50 (HOP-92 NSCLC): 35 nM and 113 nM and 163 nM; TGI (HOP-92 NSCLC): 3.5 µM and > 2.63 µM and 5.61 µM; GI50 (SNB-19 CNS): 2.64 µM and 3.84 µM and 5.83 µM; TGI (SNB-19 CNS): 15.6 µM and > 10 µM and 20.2 µM; GI50 (HCC-2998 colon): 3.35 µM and > 6.01 µM and 3.61 µM; TGI (HCC-2998 colon): 18.6 µM and > 10 µM and 19.7 µM; GI50 (A549 NSCLC): 4.33 µM and 6.07 µM and 7.9 µM; TGI (A549 NSCLC): 20.5 µM and > 10 µM and 23.6 µM; GI50 (EKVX NSCLC): 3.65 µM and > 10 µM and 1.41 µM; TGI (EKVX NSCLC): 22.8 µM and > 10 µM and 18.5 µM; GI50 (M14 melanoma): 4.69 µM and > 10 µM and 13.1 µM; TGI (M14 melanoma): 9.71 µM and > 10 µM and 28.7 µM; GI50 (DU-145 prostate): 13.6 µM and > 10 µM and 13.3 µM; TGI (DU-145 prostate): 26.7 µM and > 10 µM and 26.4 µM; GI50 (SF-295 CNS): 267 nM and 698 nM and 611 nM; TGI (SF-295 CNS): 5.22 µM and > 10 µM and 13.9 µM; GI50 (HCT-116 colon): 5.49 µM and > 6.86 µM and 11.3 µM; TGI (HCT-116 colon): 19.3 µM and > 10 µM and 27.8 µM; GI50 (SF-268 CNS): 12.2 µM and > 10 µM and 12.3 µM; TGI (SF-268 CNS): 26.4 µM and > 10 µM and 27 µM; GI50 (SW-620 colon): 14.2 µM and > 10 µM and 15 µM; TGI (SW-620 colon): 28.7 µM and > 10 µM and 29.8 µM; GI50 (SR leukemia): 7.28 µM and > 4.45 µM and 8.51 µM; TGI (SR leukemia): 19.6 µM and 9.81 µM and 33.2 µM; GI50 (786-0 renal): 816 nM and 697 nM and 1150 nM; TGI (786-0 renal): 11.9 µM and > 9.66 µM and 14.7 µM; GI50 (CAKI-1 renal): 5.01 µM and > 2.69 µM and 4.86 µM; TGI (CAKI-1 renal): 20 µM and > 10 µM and 20.7 µM
